Test results taken from the supplement of paper PMC10307832.

Experiments:
Assay in all cases: relative viability (nuclei count vs DMSO), 5 days (fraction); higher = more cells survive
[1] = system: NCI-H1975
Outline: (§1)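 Cells from lung cancer lines were seeded into 1536-well plates and, one day later, dosed by pin tool. Treatments were either a single drug or a fixed dose of an anchor drug with five library-drug doses (not always all listed) in √10 steps. After 5 days, nuclei were stained in a one-step fixation (final 0.05% Triton X-100, 1% formaldehyde, 1 ug/ml Hoechst) and counted on 4× images, and relative viability is the treated-to-vehicle nuclei ratio, as the median of duplicate plates.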

[2] = system: NCI-H2085
Outline: as §1

[3] = system: NCI-H2126
Outline: as §1

[4] = system: NCI-H460
Outline: as §1

[5] = system: NCI-H520
Outline: as §1

[6] = system: NCI-H596
Outline: as §1

[7] = system: NCI-H647
Outline: as §1

[8] = system: NCI-H661
Outline: as §1

[9] = system: NCI-H727
Outline: as §1

[10] = system: NCI-H838
Outline: as §1

[11] = system: RERF-LC-KJ
Outline: as §1

[12] = system: SW 900
Outline: as §1

Question: Which relative viability ([1]; first compound 0.03162 µM) does the source give for Cc1cn(-c2cc(NC(=O)c3ccc(C)c(Nc4nccc(-c5cccnc5)n4)c3)cc(C(F)(F)F)c2)cn1 [Nilotinib] + Cc1nc(Nc2ncc(C(=O)Nc3c(C)cccc3Cl)s2)cc(N2CCN(CCO)CC2)n1 [Dasatinib] (partner 0.075 µM) here?
Answer: 0.318

Question: What about the relative viability ([1]; first compound 0.1 µM) of the same molecule?
Answer: 0.209

Question: What about the relative viability ([2]; first compound 0.001 µM) of the same molecule?
Answer: 0.28

Question: And the relative viability ([2]; first compound 0.003162 µM)?
Answer: 0.198

Question: And the relative viability ([2]; first compound 0.01 µM)?
Answer: 0.179

Question: And the relative viability ([2]; first compound 0.03162 µM)?
Answer: 0.231

Question: And the relative viability ([2]; first compound 0.1 µM)?
Answer: 0.248

Question: What about the relative viability ([3]; first compound 0.001 µM) of the same molecule?
Answer: 0.534

Question: And the relative viability ([3]; first compound 0.003162 µM)?
Answer: 0.522

Question: And the relative viability ([3]; first compound 0.01 µM)?
Answer: 0.513

Question: And the relative viability ([3]; first compound 0.03162 µM)?
Answer: 0.5

Question: And the relative viability ([3]; first compound 0.1 µM)?
Answer: 0.459

Question: And the relative viability ([4]; first compound 0.001 µM)?
Answer: 0.487

Question: What about the relative viability ([4]; first compound 0.003162 µM) of the same molecule?
Answer: 0.384

Question: And the relative viability ([4]; first compound 0.01 µM)?
Answer: 0.65

Question: And the relative viability ([4]; first compound 0.03162 µM)?
Answer: 0.444

Question: And the relative viability ([4]; first compound 0.1 µM)?
Answer: 0.432

Question: And the relative viability ([5]; first compound 0.001 µM)?
Answer: 0.224

Question: What about the relative viability ([5]; first compound 0.003162 µM) of the same molecule?
Answer: 0.171

Question: And the relative viability ([5]; first compound 0.01 µM)?
Answer: 0.198

Question: And the relative viability ([5]; first compound 0.03162 µM)?
Answer: 0.156

Question: What about the relative viability ([5]; first compound 0.1 µM) of the same molecule?
Answer: 0.147

Question: And the relative viability ([6]; first compound 0.001 µM)?
Answer: 0.485

Question: What about the relative viability ([6]; first compound 0.003162 µM) of the same molecule?
Answer: 0.705

Question: And the relative viability ([6]; first compound 0.01 µM)?
Answer: 0.507

Question: And the relative viability ([6]; first compound 0.03162 µM)?
Answer: 0.504

Question: What about the relative viability ([6]; first compound 0.1 µM) of the same molecule?
Answer: 0.349

Question: And the relative viability ([7]; first compound 0.001 µM)?
Answer: 0.195

Question: And the relative viability ([7]; first compound 0.003162 µM)?
Answer: 0.274

Question: What about the relative viability ([7]; first compound 0.01 µM) of the same molecule?
Answer: 0.262

Question: What about the relative viability ([7]; first compound 0.03162 µM) of the same molecule?
Answer: 0.101

Question: What about the relative viability ([7]; first compound 0.1 µM) of the same molecule?
Answer: 0.0706

Question: And the relative viability ([8]; first compound 0.001 µM)?
Answer: 0.923

Question: And the relative viability ([8]; first compound 0.003162 µM)?
Answer: 0.956

Question: And the relative viability ([8]; first compound 0.01 µM)?
Answer: 0.921

Question: And the relative viability ([8]; first compound 0.03162 µM)?
Answer: 0.635

Question: What about the relative viability ([8]; first compound 0.1 µM) of the same molecule?
Answer: 0.613

Question: What about the relative viability ([9]; first compound 0.001 µM) of the same molecule?
Answer: 0.415

Question: And the relative viability ([9]; first compound 0.003162 µM)?
Answer: 0.339

Question: What about the relative viability ([9]; first compound 0.01 µM) of the same molecule?
Answer: 0.425

Question: What about the relative viability ([9]; first compound 0.03162 µM) of the same molecule?
Answer: 0.41

Question: What about the relative viability ([9]; first compound 0.1 µM) of the same molecule?
Answer: 0.302

Question: What about the relative viability ([10]; first compound 0.001 µM) of the same molecule?
Answer: 0.279

Question: And the relative viability ([10]; first compound 0.003162 µM)?
Answer: 0.302

Question: What about the relative viability ([10]; first compound 0.01 µM) of the same molecule?
Answer: 0.278

Question: And the relative viability ([10]; first compound 0.03162 µM)?
Answer: 0.268

Question: What about the relative viability ([10]; first compound 0.1 µM) of the same molecule?
Answer: 0.291

Question: And the relative viability ([11]; first compound 0.001 µM)?
Answer: 0.716

Question: What about the relative viability ([11]; first compound 0.003162 µM) of the same molecule?
Answer: 0.947

Question: What about the relative viability ([11]; first compound 0.01 µM) of the same molecule?
Answer: 0.833

Question: And the relative viability ([11]; first compound 0.03162 µM)?
Answer: 0.71

Question: And the relative viability ([11]; first compound 0.1 µM)?
Answer: 0.549

Question: And the relative viability ([12]; first compound 0.001 µM)?
Answer: 0.538

Question: And the relative viability ([12]; first compound 0.003162 µM)?
Answer: 0.617

Question: What about the relative viability ([12]; first compound 0.01 µM) of the same molecule?
Answer: 0.564

Question: And the relative viability ([12]; first compound 0.03162 µM)?
Answer: 0.442

Question: What about the relative viability ([12]; first compound 0.1 µM) of the same molecule?
Answer: 0.315
